{"source": "ChEMBL document CHEMBL5661975", "about": "“Discovery and pharmacologic characterization of CP-724,714, a selective ErbB2 tyrosine kinase inhibitor” (Cancer Res, 2007)", "key": {"BT-474 [1]": {"test_system": "BT-474", "assay": "Antitumor activity against human BT-474 expressing erbB2 cells xenografted bearing female athymic nu-nu CD-1 mouse assessed as inhibition in tumor growth at 30 mg/kg, po bid administration and measured at 40 day relative to control", "assay_type": "functional", "conditions": "BT-474, 960 h"}, "BT-474 [2]": {"test_system": "BT-474", "assay": "Antitumor activity against human BT-474 expressing erbB2 cells xenografted bearing female athymic nu-nu CD-1 mouse assessed as tumor regrowth at 30 mg/kg, po bid administration and measured at 40 day", "assay_type": "functional, organism-based"}, "BT-474 [3]": {"test_system": "BT-474", "assay": "Antitumor activity against human BT-474 high expressing erbB2 cells xenografted bearing female athymic nu-nu CD-1 mouse assessed as inhibition in tumor regression at 100 mg/kg, po bid administrated for 8 to 40 days relative to control", "assay_type": "functional", "conditions": "time 8-40 day"}, "BT-474 [4]": {"test_system": "BT-474", "assay": "Antitumor activity against human BT-474 expressing erbB2 cells xenografted bearing female athymic nu-nu CD-1 mouse assessed as inhibition in tumor growth at 50 to 100 mg/kg, po bid administration and measured at 4 day", "assay_type": "functional, organism-based", "conditions": "dose 50-100 mg/kg"}, "BT-20": {"test_system": "BT-20", "assay": "Antiproliferative activity against human BT-20 cells assessed as inhibition of cell growth", "assay_type": "functional, cell-based"}, "[5]": {"assay": "Plasma concentration in human erbB2 transfected FRE cells xenografted bearing female athymic nu-nu CD-1 mouse at 25 mg/kg, po measured at 30 mins by liquid chromatography-tandem mass spectrometry analysis", "assay_type": "ADME, organism-based"}, "BT-474 [6]": {"test_system": "BT-474", "assay": "Antitumor activity against human BT-474 expressing erbB2 cells xenografted bearing female athymic nu-nu CD-1 mouse assessed as inhibition in tumor growth at 10 mg/kg, po bid administration and measured at 40 day relative to control", "assay_type": "functional", "conditions": "BT-474, 960 h"}, "MDA-MB-231": {"test_system": "MDA-MB-231", "assay": "Antitumor activity against human MDA-MB-231 low expressing erbB2 cells xenografted bearing female athymic nu-nu CD-1 mouse assessed as inhibition in tumor growth at 100 mg/kg, po bid administrated for 14 to 31 days relative to control", "assay_type": "functional", "conditions": "time 14-31 day"}, "MDA-MB-157": {"test_system": "MDA-MB-157", "assay": "Antiproliferative activity against human MDA-MB-157 cells assessed as inhibition of cell growth", "assay_type": "functional, cell-based"}, "ZR-75-1": {"test_system": "ZR-75-1", "assay": "Antiproliferative activity against human ZR-75-1 cells assessed as inhibition of cell growth", "assay_type": "functional, cell-based"}, "LoVo": {"test_system": "LoVo", "assay": "Antitumor activity against human LoVo low expressing erbB2 cells xenografted bearing female athymic nu-nu CD-1 mouse assessed as inhibition in tumor growth at 100 mg/kg, po bid administrated for 14 to 31 days relative to control", "assay_type": "functional", "conditions": "time 14-31 day"}, "CAMA-1": {"test_system": "CAMA-1", "assay": "Antiproliferative activity against human CAMA-1 cells assessed as inhibition of cell growth", "assay_type": "functional, cell-based"}, "BT-474 [7]": {"test_system": "BT-474", "assay": "Antitumor activity against human BT-474 high expressing erbB2 cells xenografted bearing female athymic nu-nu CD-1 mouse assessed as reduction in tumor phospho-Akt level at 30 mg/kg, po after 0.5 hrs administration by western blot analysis relative to control", "assay_type": "functional", "parameters": "scale not given: the % may be the effect or the level left"}, "BT-474 [8]": {"test_system": "BT-474", "assay": "Antitumor activity against human BT-474 expressing erbB2 cells xenografted bearing female athymic nu-nu CD-1 mouse assessed as reduction in tumor erbB2 receptor phosphorylation at 100 mg/kg, po bid administration and measured at 40 day by ELISA method relative to control", "assay_type": "functional", "parameters": "scale not given: the % may be the effect or the level left"}, "UACC-812": {"test_system": "UACC-812", "assay": "Antiproliferative activity against human UACC-812 cells assessed as inhibition of cell growth", "assay_type": "functional, cell-based"}, "MDA-MB-453 [9]": {"test_system": "MDA-MB-453", "assay": "Antitumor activity against human MDA-MB-453 expressing erbB2 cells xenografted bearing female athymic nu-nu CD-1 mouse assessed as inhibition in tumor growth at 25 mg/kg, po bid administration and measured at 29 day relative to control", "assay_type": "functional", "conditions": "MDA-MB-453, 696 h"}, "BT-474 [10]": {"test_system": "BT-474", "assay": "Antitumor activity against human BT-474 high expressing erbB2 cells xenografted bearing female athymic nu-nu CD-1 mouse assessed as inhibition in tumor growth at 100 mg/kg, po bid administrated for 8 to 40 days relative to control", "assay_type": "functional", "conditions": "time 8-40 day"}, "EFM-19": {"test_system": "EFM-19", "assay": "Antiproliferative activity against human EFM-19 cells assessed as inhibition of cell growth", "assay_type": "functional, cell-based"}, "BT-474 [11]": {"test_system": "BT-474", "assay": "Induction of cell cycle arrest in Her2-amplified human BT-474 cells overexpressing erbB2 assessed as reduction in S phase at 1 micromol/L incubated for 24 hrs by flow cytometry analysis relative to control", "assay_type": "functional", "parameters": "scale not given: the % may be the effect or the level left", "conditions": "dose 1 µmol/L, at 1 µM"}, "MDA-MB-453 [12]": {"test_system": "MDA-MB-453", "assay": "Antitumor activity against human MDA-MB-453 expressing erbB2 cells xenografted bearing female athymic nu-nu CD-1 mouse assessed as reduction in tumor erbB2 phosphorylation at 100 mg/kg, po bid administration and measured at 29 day by ELISA method relative to control", "assay_type": "functional", "parameters": "scale not given: the % may be the effect or the level left"}, "MDA-MB-361": {"test_system": "MDA-MB-361", "assay": "Antiproliferative activity against human MDA-MB-361 cells assessed as inhibition of cell growth", "assay_type": "functional, cell-based"}, "[13]": {"assay": "Antiproliferative activity against human KPL-1 cells assessed as inhibition of cell growth", "assay_type": "functional, cell-based"}, "MDA-MB-468": {"test_system": "MDA-MB-468", "assay": "Antiproliferative activity against human MDA-MB-468 cells assessed as inhibition of cell growth", "assay_type": "functional, cell-based"}, "[14]": {"assay": "Antiproliferative activity against human SUM190PT cells assessed as inhibition of cell growth", "assay_type": "functional, cell-based"}, "[15]": {"assay": "Toxicity in human erbB2 transfected FRE cells xenografted bearing female athymic nu-nu CD-1 mouse assessed as body weight loss at 50 mg/kg, po QD administrated for 8 to 40 days", "assay_type": "organism-based", "conditions": "in vivo, time 8-40 day"}, "T47D": {"test_system": "T47D", "assay": "Antiproliferative activity against human T47D cells assessed as inhibition of cell growth", "assay_type": "functional, cell-based"}, "BT-474 [16]": {"test_system": "BT-474", "assay": "Antitumor activity against human BT-474 expressing erbB2 cells xenografted bearing female athymic nu-nu CD-1 mouse assessed as tumor regression at 100 mg/kg, po bid administration and measured at 40 day relative to control", "assay_type": "functional"}, "FRE": {"test_system": "FRE", "assay": "Antitumor activity against human erbB2 transfected FRE cells xenografted bearing female athymic nu-nu CD-1 mouse assessed as inhibition in tumor volume at 6.25 to 100 mg/kg, po QD administrated for 8 to 40 days", "assay_type": "functional, organism-based", "conditions": "dose 6.25-100 mg/kg, time 8-40 day"}, "SK-BR-3": {"test_system": "SK-BR-3", "assay": "Antiproliferative activity against human SK-BR-3 cells assessed as inhibition of cell growth", "assay_type": "functional, cell-based"}, "[17]": {"assay": "Cmax in human erbB2 transfected FRE cells xenografted bearing female athymic nu-nu CD-1 mouse at 50 mg/kg, po QD administrated for 8 to 40 days by liquid chromatography-tandem mass spectrometry analysis", "assay_type": "ADME, organism-based", "conditions": "in vivo, time 8-40 day"}, "BT-474 [18]": {"test_system": "BT-474", "assay": "Antiproliferative activity against human BT-474 cells assessed as inhibition of cell growth", "assay_type": "functional, cell-based"}, "[19]": {"assay": "Antiproliferative activity against human SUM225CWN cells assessed as inhibition of cell growth", "assay_type": "functional, cell-based"}}, "note": "Calls of active or inactive are those of the source. The rule behind the calls is not given here."}
{"smiles": "COCC(=O)NC/C=C/c1ccc2ncnc(Nc3ccc(Oc4ccc(C)nc4)c(C)c3)c2c1", "note": "[CP-724714]", "values": [{"measurement": "inhibition in vivo at 30 mg/kg", "setting": "BT-474 [1]", "value": 81, "unit": "%"}, {"measurement": "Activity", "setting": "BT-474 [2]", "value": "Active"}, {"measurement": "inhibition in vivo at 100 mg/kg", "setting": "BT-474 [3]", "value": 83, "unit": "%"}, {"measurement": "inhibition", "setting": "BT-474 [4]", "value": "Active"}, {"measurement": "IC50", "setting": "BT-20", "value": "> 10000", "unit": "nM"}, {"measurement": "concentration at 0.5 h", "setting": "[5]", "value": "~12500", "unit": "ng/mL"}, {"measurement": "inhibition in vivo at 10 mg/kg", "setting": "BT-474 [6]", "value": 42, "unit": "%"}, {"measurement": "inhibition in vivo at 100 mg/kg", "setting": "MDA-MB-231", "value": 46, "unit": "%"}, {"measurement": "IC50", "setting": "MDA-MB-157", "value": "> 10000", "unit": "nM"}, {"measurement": "IC50", "setting": "ZR-75-1", "value": "> 10000", "unit": "nM"}, {"measurement": "inhibition in vivo at 100 mg/kg", "setting": "LoVo", "value": 46, "unit": "%"}, {"measurement": "IC50", "setting": "CAMA-1", "value": "> 10000", "unit": "nM"}, {"measurement": "Activity", "setting": "BT-474 [7]", "value": 42, "unit": "%"}, {"measurement": "Activity", "setting": "BT-474 [8]", "value": 81, "unit": "%"}, {"measurement": "IC50", "setting": "UACC-812", "value": 1900, "unit": "nM"}, {"measurement": "inhibition in vivo at 25 mg/kg", "setting": "MDA-MB-453 [9]", "value": "~19", "unit": "%"}, {"measurement": "inhibition in vivo at 100 mg/kg", "setting": "BT-474 [10]", "value": 83, "unit": "%"}, {"measurement": "IC50", "setting": "EFM-19", "value": "> 10000", "unit": "nM"}, {"measurement": "Activity", "setting": "BT-474 [11]", "value": 3.2, "unit": "%"}, {"measurement": "Activity", "setting": "MDA-MB-453 [12]", "value": 69, "unit": "%"}, {"measurement": "IC50", "setting": "MDA-MB-361", "value": 3700, "unit": "nM"}, {"measurement": "IC50", "setting": "[13]", "value": "> 10000", "unit": "nM"}, {"measurement": "IC50", "setting": "MDA-MB-468", "value": "> 10000", "unit": "nM"}, {"measurement": "IC50", "setting": "[14]", "value": 710, "unit": "nM"}, {"measurement": "Activity", "setting": "[15]", "value": "Non-Toxic"}, {"measurement": "IC50", "setting": "T47D", "value": 2400, "unit": "nM"}, {"measurement": "Activity", "setting": "BT-474 [16]", "value": 61, "unit": "%"}, {"measurement": "inhibition", "setting": "FRE", "value": "Active"}, {"measurement": "IC50", "setting": "SK-BR-3", "value": 950, "unit": "nM"}, {"measurement": "Cmax", "setting": "[17]", "value": 4500, "unit": "ng/mL"}, {"measurement": "IC50", "setting": "BT-474 [18]", "value": 250, "unit": "nM"}, {"measurement": "IC50", "setting": "[19]", "value": 990, "unit": "nM"}]}
